Measurements published in patent publication US11020405B2, “Method for prevention or treatment of diabetic complications” (KANGWON NATIONAL UNIVERSITY UNIVERSITY-INDUSTRY COOPERATION …, priority 2017, dated 2021).

Columns and labels:
[1] = system: human retinal endothelial cells (HRECs); assay: Analysis of ROS of cells (H2DCFDA fluorescence); assay type: cell-based
Method: Purchased from Applied Cell Biology Research Institute (Cell Systems, Kirkland, Wash.), human retinal endothelial cells (HRECs) were cultured in an M19 medium, containing 20% FBS, 3 ng/mL bFGF, 5 U/mL heparin, 100 U/mL penicillin and […], in a 2% gelatin-coated plate.
Before the following Test Examples 2 to 7, the HRECs were cultured for 6 hr in a medium containing 1% FBS and an antibiotic agent, thus preparing HRECs of Test Example 1.
With reference to FIG. 3A, the HRECs of Test Example 1 were treated with 0 to 20 μM midazolam, cultured for 30 min, treated with 10 ng/mL VEGF and 10 μM H2DCFDA (Molecular Probes, Eugene, Oreg.), stained for 10 min in a phenol-red-free low-serum medium, and then measured using confocal microscopy to thus determine the fluorescence intensity of single cells.
With reference to FIG. 3B, the HRECs of Test Example 1 were subjected to the respective treatments below and cultured for 30 min. Upon treatment with 10 ng/mL VEGF, treatment with 10 μM H2DCFDA was performed therewith, or alternatively, treatment with 10 μM H2DCFDA was performed alone, followed by staining for 10 min in a phenol-red-free low-serum medium and then measurement via confocal microscopy to thus determine the fluorescence intensity of single cells.

[2] = Body weight and blood glucose monitoring in diabetic mice; assay type: in vivo, C57BL/6 mice
Method: FIGS. 19A and 19B show the preventive effects of midazolam against hyperglycemia-induced endothelial apoptosis in the aortic endothelium of diabetic mice. Six-week-old male C57BL/6 mice were administered with streptozotocin (150 mg/kg body weight) to give diabetic mouse models. One week after streptozotocin injection, diabetic mice were administered midazolam (10 mg/kg) by intraperitoneal injection daily for 14 days. The body weight of mice were measure in normal (20.7±0.1 g), diabetic (17.1±0.1 g), and midazolam supplemented diabetic mice (17.0±0.3 g). Blood glucose levels were also monitored in normal (124.0±12.0 mg/dL), diabetic (509.0±1.0 mg/dL), and midazolam supplemented diabetic mice (515.7±3.4 mg/dL). Aorta of mice were dissected and cut longitudinally to expose the endothelium. And then aortic segments were fixed for 15 min with 1% (w/v) paraformaldehyde in PBS, followed by treatment for 30 min with 70% (v/v) ethanol on ice. Apoptotic cells were stained by terminal deoxynucleotidyl transferase dUTP nick end labeling (TUNEL) with nuclear counterstaining with DAPI and visualized by confocal microscopy in the aortic endothelium. Representative images of endothelial apoptosis in aorta are shown in additional FIG. 19A. Scale bar, 100 μm. The results of endothelial apoptosis quantitatively analyzed by measurement of TUNEL staining in the aorta are shown in additional FIG. 19B (n=4 for normal and diabetic, n=6 for diabetic+Midazolam).
FIGS. 20A and 20B show the preventive effects of midazolam against hyperglycemia-induced renal vascular leakage in diabetic mice. Six-week-old male C57BL/6 mice were administered with streptozotocin (150 mg/kg body weight) to give diabetic mouse models. Two weeks after streptozotocin injection, diabetic mice were administered 10 mg/kg midazolam by intraperitoneal injection daily for 2 days, and vascular leakage was investigated. The body weight of mice were measure in normal (19.9±0.3 g), diabetic (17.7±0.3 g), and midazolam supplemented diabetic mice (17.7±0.3 g). Blood glucose levels were also monitored in normal (123.5±6.5 mg/dL), diabetic (505.0±89.0 mg/dL), and midazolam supplemented diabetic mice (500.3±63.3 mg/dL). The mice were anesthetized with 3% isoflurane, and 1.25 mg of FITC-dextran was injected into the right ventricle of each mouse and allowed to circulate for 5 min. […] The results of vascular leakage quantitatively analyzed by measuring the fluorescence intensity of FITC-dextran in the kidneys are shown in additional FIG. 20B. […]
FIGS. 21A and 21B show the preventive effects of midazolam against hyperglycemia-induced pulmonary vascular leakage in diabetic mice. […] Blood glucose levels were also monitored in normal (123.5±6.5 mg/dL), diabetic (505.0±89.0 mg/dL), and midazolam supplemented diabetic mice (500.3±63.3 mg/dL). […]

## Cc1ncc2n1-c1ccc(Cl)cc1C(c1ccccc1F)=NC2 [midazolam]
[1]; 0 to 20 μM midazolam 30 min, then 10 ng/mL VEGF (FIG. 3A)
  ROS concentration, concentration dependence: ROS concentration was decreased with an increase in the concentration of midazolam
[1]; 10 ng/mL VEGF with 20 μM midazolam, 5 μM BAPTA-AM, 1 mM NAC, 0.5 μM Trolox, 50 μM cystamine or 20 μM MDC (FIG. 3B)
  ROS concentration (VEGF-induced) compared to control: no significant ROS concentration increase was observed
[2]; Test Example 15: midazolam supplemented diabetic mice, 10 mg/kg intraperitoneal daily for 14 days
  body weight: 17.0 ± 0.3 g
[2]; Test Example 16: midazolam supplemented diabetic mice, 10 mg/kg intraperitoneal daily for 2 days
  body weight: 17.7 ± 0.3 g
[2]; Test Example 17: midazolam supplemented diabetic mice, 10 mg/kg intraperitoneal daily for 2 days
  body weight: 17.6 ± 0.3 g
[2]; Test Example 18: midazolam supplemented diabetic mice, 10 mg/kg intraperitoneal daily for 14 days, B16F10 cells
  weight of mice: 16.2 ± 0.5 g
